The source of these data is patent publication US20240254118A1, “PRMT5 INHIBITORS AND USES THEREOF” (Gilead Sciences, Inc., priority 2022, published 2024).

Each structure is given as a SMILES string. pEC50: −log10 of the molar value.

One may read the pEC50 as the negative decadic logarithm of the EC50, by convention in mol/L. One may read the CC50 as the concentration at which the toxic effect on the cells reaches its halfway point. Lower therefore signals harm at low concentration.

For assay [1], the system named is SDMA signal (PRMT5 inhibition) in HCT116 MTAP-deleted cells. The assay is described as follows: Symmetric di-methyl arginine image-based high content screen assay (SDMA assay), HCT116 MTAP-deleted. Type of assay: cell-based. Particulars: SDMA assay; for pEC50: Homo sapiens, HCT-116, 72 h, 3 days of treatment, cell line not given, taken as HCT116 MTAP-deleted, read-out: EC50 (SDMA assay); for EC50 selectivity (SDMA assay): taken as HCT116 WT versus MTAP-deleted. The method, boiled down: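 HCT116 MTAP-deleted cells treated with compound until Day 3, then formalin-fixed, permeabilized and immunostained for SDMA, with DAPI nuclear counterstain. Imaged by high-content microscopy; SDMA read-out is mean Alexa 488 intensity per DAPI-defined cell, reflecting PRMT5 inhibition.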

Assay [2] has as its system HCT116 MTAP-deleted cells. The assay is described as follows: Cell viability assay (CellTiter-Glo, 7 days), HCT116 MTAP-deleted. Particulars: Homo sapiens, HCT-116, 168 h. For orientation: In ATP-based viability assays light output follows the ATP content of the culture.

On to `CN(C(=O)C1CC1)N(Cc1ccc(F)cc1F)C(=O)c1ccc2nc(N)c3cnn(C)c3c2c1` [Example 122, 4-amino-N′-(cyclopropanecarbonyl)-N-(2,4-difluorobenzyl)-N′,1-dimethyl-1H-pyrazolo[4,3-c]quinoline-8-carbohydrazide], for which, in assay [1], the pEC50 is above 9.00 and the “EC50 selectivity (SDMA assay)” value came out at 261. In assay [2], the cytotoxic concentration (CC50) is below 100 nM.
Consider `Cn1ncc2c(N)nc3ccc(C(=O)N(Cc4cn5cc(Cl)ccc5n4)N4CCCC4=O)cc3c21` [Example 123, 4-Amino-N-[(6-chloroimidazo[1,2-a]pyridin-2-yl)methyl]-1-methyl-N-(2-oxopyrrolidin-1-yl)pyrazolo[4,3-c]quinoline-8-carboxamide], for which, in assay [1], the pEC50 is above 9.00 and the “EC50 selectivity (SDMA assay)” value is 39. For the same molecule, the CC50 in assay [2] is below 100 nM.
With `CN1CCN(N(Cc2cn3ccc(Cl)cc3n2)C(=O)c2ccc3nc(N)c4cnn(C)c4c3c2)C1=O` [Example 125, 4-Amino-N-[(7-chloroimidazo[1,2-a]pyridin-2-yl)methyl]-1-methyl-N-(3-methyl-2-oxo-imidazolidin-1-yl)pyrazolo[4,3-c]quinoline-8-carboxamide], in assay [1], the pEC50 is 8.30 to 9.00 and the “EC50 selectivity (SDMA assay)” value is given as 60. The CC50 in assay [2] was below 100 nM.
Taken in the same sequence, the figures for `CN(C(=O)N1CCC1)N(Cc1ccc(C(F)(F)F)cn1)C(=O)c1ccc2nc(N)c3cnn(C)c3c2c1` [Example 126, 4-amino-N′-(azetidine-1-carbonyl)-N′,1-dimethyl-N-((5-(trifluoromethyl)pyridin-2-yl)methyl)-1H-pyrazolo[4,3-c]quinoline-8-carbohydrazide] were above 9.00, 45 and below 100 nM.
Taken in the same sequence, the figures for `CN(C(=O)N1CC2CC2C1)N(Cc1ccc(C(F)(F)F)cn1)C(=O)c1ccc2nc(N)c3cnn(C)c3c2c1` (stereo not drawn) [Example 127, 4-amino-N′-(3-azabicyclo[3.1.0]hexane-3-carbonyl)-N′,1-dimethyl-N-((5-(trifluoromethyl)pyridin-2-yl)methyl)-1H-pyrazolo[4,3-c]quinoline-8-carbohydrazide] were 8.30 to 9.00, 228 and below 100 nM.
`CN(C(=O)N1CC2CC1C2)N(Cc1ccc(C(F)(F)F)cn1)C(=O)c1ccc2nc(N)c3cnn(C)c3c2c1` [Example 128, 4-amino-N′-(2-azabicyclo[2.1.1]hexane-2-carbonyl)-N′,1-dimethyl-N-((5-(trifluoromethyl)pyridin-2-yl)methyl)-1H-pyrazolo[4,3-c]quinoline-8-carbohydrazide]: in assay [1], the pEC50 was above 9.00 and the “EC50 selectivity (SDMA assay)” value was determined as 131. This molecule also gave a CC50 in assay [2] below 100 nM.
Taken in the same sequence, the figures for `CN(c1ncccn1)N(Cc1cn2cc(Cl)ccc2n1)C(=O)c1ccc2nc(N)c3cnn(C)c3c2c1` [Example 129, 4-amino-N-[(6-chloroimidazo[1,2-a]pyridin-2-yl)methyl]-N′,1-dimethyl-N′-pyrimidin-2-yl-pyrazolo[4,3-c]quinoline-8-carbohydrazide] were above 9.00, 11 and below 100 nM.
The matching figures for `Cn1cc(-c2ccc(CN(C(=O)c3ccc4nc(N)c5cnn(C)c5c4c3)N3CCCCC3=O)nc2)cn1` [Example 130, 4-amino-1-methyl-N-((5-(1-methyl-1H-pyrazol-4-yl)pyridin-2-yl)methyl)-N-(2-oxopiperidin-1-yl)-1H-pyrazolo[4,3-c]quinoline-8-carboxamide]: 8.30 to 9.00, 34 and below 100 nM.
The matching figures for `Nc1nc2cc(F)c(C(=O)N3CCCCN3c3ccc(C(F)(F)F)cn3)cc2c2cscc12` [Example 131, (4-amino-7-fluoro-thieno[3,4-c]quinolin-8-yl)-[2-[5-(trifluoromethyl)-2-pyridyl]hexahydropyridazin-1-yl]methanone]: below 8.30, 279 and above 1000 nM.
With `Nc1nc2cc(F)c(C(=O)N3CCCN3c3ccc(C(F)(F)F)cn3)cc2c2cscc12` [Example 132, (4-amino-7-fluoro-thieno[3,4-c]quinolin-8-yl)-[2-[5-(trifluoromethyl)-2-pyridyl]pyrazolidin-1-yl]methanone], in assay [1], the pEC50 was below 8.30 and the “EC50 selectivity (SDMA assay)” value was 3193. Besides, in assay [2], the CC50 is above 1000 nM.
The matching figures for `Cn1ncc2c(N)nc3ccc(C(=O)N(Cc4ccc(C(F)(F)F)cn4)N4CCOC4=O)cc3c21` [Example 133, 4-amino-1-methyl-N-(2-oxooxazolidin-3-yl)-N-((5-(trifluoromethyl)pyridin-2-yl)methyl)-1H-pyrazolo[4,3-c]quinoline-8-carboxamide]: above 9.00, 92 and below 100 nM.
Taken in the same sequence, the figures for `CN1CCN(N(Cc2ccc(C(F)(F)F)cn2)C(=O)c2cc3c(cc2F)nc(N)c2cnn(C)c23)C1=O` [Example 134, 4-amino-7-fluoro-1-methyl-N-(3-methyl-2-oxoimidazolidin-1-yl)-N-((5-(trifluoromethyl)pyridin-2-yl)methyl)-1H-pyrazolo[4,3-c]quinoline-8-carboxamide] were 8.30 to 9.00, 18 and below 100 nM.
On to `Cn1ncc2c(N)nc3ccc(C(=O)N(Cc4nc(C(F)(F)F)cs4)N4CCCOC4=O)cc3c21` [Example 135, 4-amino-1-methyl-N-(2-oxo-1,3-oxazinan-3-yl)-N-((4-(trifluoromethyl)thiazol-2-yl)methyl)-1H-pyrazolo[4,3-c]quinoline-8-carboxamide], for which, in assay [1], the pEC50 is 8.30 to 9.00 and the “EC50 selectivity (SDMA assay)” value was determined as 495. Besides, the 50% cytotoxic concentration (CC50) in assay [2] lay in the range of 100 to 1000 nM.
Taken in the same sequence, the figures for `Cn1ncc2c(N)nc3ccc(C(=O)N(Cc4csc(C(F)(F)F)n4)N4CCCOC4=O)cc3c21` [Example 136, 4-amino-1-methyl-N-(2-oxo-1,3-oxazinan-3-yl)-N-((2-(trifluoromethyl)thiazol-4-yl)methyl)-1H-pyrazolo[4,3-c]quinoline-8-carboxamide] were 8.30 to 9.00, 724 and 100 to 1000 nM.
On to `CN(C(=O)OC(C)(C)C)N(Cc1ccc(C(F)(F)F)cn1)C(=O)c1ccc2nc(N)c3cnn(C)c3c2c1` [Example 137, tert-butyl N-[(4-amino-1-methyl-pyrazolo[4,3-c]quinoline-8-carbonyl)-[[5-(trifluoromethyl)-2-pyridyl]methyl]amino]-N-methyl-carbamate], for which, in assay [1], the pEC50 is 8.30 to 9.00 and the “EC50 selectivity (SDMA assay)” value came to 159. For the same molecule, the CC50 in assay [2] is below 100 nM.
The matching figures for `Cn1ncc2c(N)nc3ccc(C(=O)N(Cc4ccc(C(F)(F)F)cn4)N4CCS(=O)(=O)CC4)cc3c21` [Example 138, 4-amino-N-(1,1-dioxo-1,4-thiazinan-4-yl)-1-methyl-N-[[5-(trifluoromethyl)-2-pyridyl]methyl]pyrazolo[4,3-c]quinoline-8-carboxamide]: below 8.30, 174 and above 1000 nM.
The matching figures for `Cn1ncc2c(N)nc3ccc(C(=O)N(Cc4cn5ccccc5n4)N4Cc5ccccc5C4=O)cc3c21` [Example 139, 4-amino-N-(imidazo[1,2-a]pyridin-2-ylmethyl)-1-methyl-N-(1-oxoisoindolin-2-yl)pyrazolo[4,3-c]quinoline-8-carboxamide]: below 8.30, 20 and below 100 nM.
For `CN(C(=O)C12CC(C1)C2)N(Cc1ccc(Cl)cn1)C(=O)c1ccc2nc(N)c3cnn(C)c3c2c1` [Example 140, 4-amino-N′-(bicyclo[1.1.1]pentane-1-carbonyl)-N-((5-chloropyridin-2-yl)methyl)-N′,1-dimethyl-1H-pyrazolo[4,3-c]quinoline-8-carbohydrazide], in assay [1], the pEC50 was above 9.00 and the “EC50 selectivity (SDMA assay)” value was 456. Also, the CC50 in assay [2] is below 100 nM.
As to `Cn1ncc2c(N)nc3cc(Cl)c(C(=O)N(Cc4ccc(C(F)(F)F)cn4)N4CCCC4=O)cc3c21` [Example 141, 4-amino-7-chloro-1-methyl-N-(2-oxopyrrolidin-1-yl)-N-[[5-(trifluoromethyl)-2-pyridyl]methyl]pyrazolo[4,3-c]quinoline-8-carboxamide], in assay [1], the negative-log EC50 (pEC50) was 8.30 to 9.00 and the “EC50 selectivity (SDMA assay)” value is given as 58. The molecule also displayed a CC50 in assay [2] below 100 nM.
The matching figures for `Cn1ncc2c(N)nc3cc(F)c(C(=O)N(Cc4ccc(C(F)(F)F)cn4)N4CCOCC4)cc3c21` [Example 142, 4-amino-7-fluoro-1-methyl-N-morpholino-N-((5-(trifluoromethyl)pyridin-2-yl)methyl)-1H-pyrazolo[4,3-c]quinoline-8-carboxamide]: above 9.00, 32 and below 100 nM.
Take `Cn1ncc2c(N)nc3cc(Cl)c(C(=O)N(Cc4ccc(C(F)(F)F)cn4)N4CCCOC4=O)cc3c21` [Example 143, 4-amino-7-chloro-1-methyl-N-(2-oxo-1,3-oxazinan-3-yl)-N-[[5-(trifluoromethyl)-2-pyridyl]methyl]pyrazolo[4,3-c]quinoline-8-carboxamide]: in assay [1], the pEC50 is 8.30 to 9.00 and the “EC50 selectivity (SDMA assay)” value worked out at 67. The molecule also yielded a CC50 in assay [2] below 100 nM.
Take `Cn1ncc2c(N)nc3cc(F)c(C(=O)N(Cc4ccc(C(F)(F)F)cn4)N4CCCOC4=O)cc3c21` [Example 144, 4-amino-7-fluoro-1-methyl-N-(2-oxo-1,3-oxazinan-3-yl)-N-[[5-(trifluoromethyl)-2-pyridyl]methyl]pyrazolo[4,3-c]quinoline-8-carboxamide]: in assay [1], the pEC50 is 8.30 to 9.00 and the “EC50 selectivity (SDMA assay)” value amounted to 43. For the same molecule, in assay [2], the cytotoxic concentration (CC50) is below 100 nM.
